Results published in patent US10294202B2, “Pyrrolidinones as herbicides” (FMC Corporation, priority 2013, dated 2019).

Tests used:
pigweed = assay: Test A pre-/postemergence herbicide test; type: in vivo, Amaranthus retroflexus
Outline: (§1)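 Greenhouse pot test with pre- and postemergence application of surfactant-containing solvent formulations. Postemergence plants were 2–10 cm, one- to two-leaf stage. Response scored visually after ~10 days, 0 (no effect) to 100 (complete control).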

barnyardgrass [1] = assay: Test B flooded paddy test; type: in vivo, Echinochloa crus-galli; conditions: 500 g ai/ha, Flood; scale of 0 to 100 where 0 is no effect and 100 is complete control
Outline: (§2)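 In-water application to pots flooded 3 cm deep, plants at 2-leaf stage. Held in greenhouse 13–15 days at constant flood depth. Scored 0–100 by eye against controls.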

galium = assay: Test A postemergence herbicide test; type: in vivo, Galium aparine
Outline: (§3)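 Injury was rated visually about 10 days after treatment on a 0 (no effect) to 100 (complete control) scale, compared with untreated plants. Test chemicals were sprayed postemergence onto greenhouse plants 2–10 cm high at one to two leaves, grown in a loam–sand blend.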

ragweed = assay: Test A pre-/postemergence herbicide test; type: in vivo, Ambrosia elatior
Outline: as §1

rice = assay: Test B flooded paddy test; type: in vivo, Oryza sativa; conditions: 500 g ai/ha, Flood; scale of 0 to 100 where 0 is no effect and 100 is complete control
Outline: as §2

kochia = assay: Test A pre-/postemergence herbicide test; type: in vivo, Kochia scoparia
Outline: as §1

giant foxtail = assay: Test A pre-/postemergence herbicide test; type: in vivo, Setaria faberii
Outline: as §1

corn = assay: Test A pre-/postemergence herbicide test; type: in vivo, Zea mays; conditions: Postemergence
Outline: as §1

ryegrass, Italian = assay: Test A pre-/postemergence herbicide test; type: in vivo, Lolium multiflorum
Outline: as §1

barnyardgrass [2] = assay: Test A pre-/postemergence herbicide test; type: in vivo, Echinochloa crus-galli
Outline: as §1

wheat = assay: Test A pre-/postemergence herbicide test; type: in vivo, Triticum aestivum; conditions: Postemergence
Outline: as §1

ducksalad = assay: Test B flooded paddy test; type: in vivo, Heteranthera limosa; conditions: 500 g ai/ha, Flood; scale of 0 to 100 where 0 is no effect and 100 is complete control
Outline: as §2

sedge, umbrella = assay: Test B flooded paddy test; type: in vivo, Cyperus difformis; conditions: 500 g ai/ha, Flood; scale of 0 to 100 where 0 is no effect and 100 is complete control
Outline: as §2

blackgrass = assay: Test A postemergence herbicide test; type: in vivo, Alopecurus myosuroides
Outline: as §3

[3] = Postemergence, 125 g ai/ha, visual rating on 0 to 100 scale (0 no effect, 100 complete control), approx. 10 days
[4] = Postemergence, 500 g ai/ha, 0 to 100 scale (0 no effect, 100 complete control)
[5] = Preemergence, 125 g ai/ha, 0 to 100 scale where 0 is no effect and 100 is complete control
[6] = Preemergence, 500 g ai/ha, visual rating on 0 to 100 scale (0 no effect, 100 complete control)
[7] = 125 g ai/ha, visual rating on 0 to 100 scale (0 no effect, 100 complete control), approx. 10 days
[8] = 500 g ai/ha, 0 to 100 scale (0 no effect, 100 complete control)
[9] = 125 g ai/ha, visual rating, 0 to 100 scale, 0 no effect, 100 complete control, approximately 10 days, preemergence
[10] = Postemergence, 125 g ai/ha, 0 to 100 scale, 0 no effect, 100 complete control
[11] = preemergence, 500 g ai/ha, 0 to 100 scale
[12] = 125 g ai/ha, 0 to 100 scale, 0 no effect, 100 complete control

## O=C1NCC(c2cccc(Oc3ccccc3)c2)C1C(=O)Nc1cccc(F)c1F (stereo not drawn) [Compound 332]
pigweed; [3]
  Plant response rating, Pigweed: 0
pigweed; [4]
  Plant response rating, Pigweed: 0
pigweed; [5]
  Plant response rating, Pigweed: 0
pigweed; [6]
  Pigweed plant response rating: 0
Barnyardgrass [1]
  Plant response rating, Barnyardgrass: 40
galium; [7]
  Plant response rating, Galium: 0
galium; [8]
  Plant response rating, Galium: 20
ragweed; [3]
  Plant response rating, Ragweed: 0
ragweed; [4]
  Plant response rating, Ragweed: 0
ragweed; [5]
  Plant response rating, Ragweed: 0
ragweed; [6]
  Ragweed plant response rating: 0
rice
  Plant response rating, Rice: 0
kochia; [3]
  Plant response rating, Kochia: 0
kochia; [4]
  Plant response rating, Kochia: 20
kochia; [5]
  Plant response rating, Kochia: 0
kochia; [6]
  Kochia plant response rating: 0
Giant foxtail; [3]
  Plant response rating, Foxtail, Giant: 30
Giant foxtail; [4]
  Plant response rating, Foxtail, Giant: 80
Giant foxtail; [5]
  Plant response rating, Foxtail, Giant: 80
Giant foxtail; [6]
  Foxtail, Giant plant response rating: 90
corn; [7]
  Plant response rating, Corn: 0
corn; [8]
  Plant response rating, Corn: 0
ryegrass, Italian; [3]
  Plant response rating, Ryegrass, Italian: 0
ryegrass, Italian; [4]
  Plant response rating, Ryegrass, Italian: 20
ryegrass, Italian; [5]
  Plant response rating, Ryegrass, Italian: 0
ryegrass, Italian; [6]
  Ryegrass, Italian plant response rating: 0
Barnyardgrass [2]; [3]
  Plant response rating, Barnyardgrass: 40
Barnyardgrass [2]; [4]
  Plant response rating, Barnyardgrass: 50
Barnyardgrass [2]; [5]
  Plant response rating, Barnyardgrass: 70
Barnyardgrass [2]; [6]
  Barnyardgrass plant response rating: 80
wheat; [7]
  Plant response rating, Wheat: 0
wheat; [8]
  Plant response rating, Wheat: 20
ducksalad
  Plant response rating, Ducksalad: 75
sedge, umbrella
  Plant response rating, Sedge, Umbrella: 0
blackgrass; [7]
  Plant response rating, Blackgrass: 0
blackgrass; [8]
  Plant response rating, Blackgrass: 0

## Cc1ccc(C2CNC(=O)C2C(=O)Nc2ccccc2F)cc1 (racemic) [Compound 149]
pigweed; [9]
  Plant response rating, Pigweed: 0
pigweed; [10]
  Plant response rating, Pigweed: 0
pigweed; Postemergence, 500 g ai/ha
  Pigweed plant response rating (0 to 100 scale, 0 is no effect, 100 is complete control): 0
pigweed; [11]
  Plant response rating, Pigweed: 0
Barnyardgrass [1]
  Plant response rating, Barnyardgrass: 70
galium; [12]
  Plant response rating, Galium: 50
galium; 500 g ai/ha
  Galium plant response rating (0 to 100 scale, 0 is no effect, 100 is complete control): 60
ragweed; [9]
  Plant response rating, Ragweed: 60
ragweed; [10]
  Plant response rating, Ragweed: 30
ragweed; Postemergence, 500 g ai/ha
  Ragweed plant response rating (0 to 100 scale, 0 is no effect, 100 is complete control): 40
ragweed; [11]
  Plant response rating, Ragweed: 80
rice
  Plant response rating, Rice: 0
kochia; [9]
  Plant response rating, Kochia: 10
kochia; [10]
  Plant response rating, Kochia: 50
kochia; Postemergence, 500 g ai/ha
  Kochia plant response rating (0 to 100 scale, 0 is no effect, 100 is complete control): 60
kochia; [11]
  Plant response rating, Kochia: 70
Giant foxtail; [9]
  Plant response rating, Foxtail, Giant: 70
Giant foxtail; [10]
  Plant response rating, Foxtail, Giant: 40
Giant foxtail; Postemergence, 500 g ai/ha
  Foxtail, Giant plant response rating (0 to 100 scale, 0 is no effect, 100 is complete control): 70
Giant foxtail; [11]
  Plant response rating, Foxtail, Giant: 90
corn; [12]
  Plant response rating, Corn: 10
corn; 500 g ai/ha
  Corn plant response rating (0 to 100 scale, 0 is no effect, 100 is complete control): 70
ryegrass, Italian; [9]
  Plant response rating, Ryegrass, Italian: 20
ryegrass, Italian; [10]
  Plant response rating, Ryegrass, Italian: 10
ryegrass, Italian; Postemergence, 500 g ai/ha
  Ryegrass, Italian plant response rating (0 to 100 scale, 0 is no effect, 100 is complete control): 50
ryegrass, Italian; [11]
  Plant response rating, Ryegrass, Italian: 70
Barnyardgrass [2]; [9]
  Plant response rating, Barnyardgrass: 90
Barnyardgrass [2]; [10]
  Plant response rating, Barnyardgrass: 70
Barnyardgrass [2]; Postemergence, 500 g ai/ha
  Barnyardgrass plant response rating (0 to 100 scale, 0 is no effect, 100 is complete control): 80
Barnyardgrass [2]; preemergence, 500 g ai/ha, 0 to 100 scale (0 no effect, 100 complete control)
  Plant response rating, Barnyardgrass: 90
wheat; [12]
  Plant response rating, Wheat: 0
wheat; 500 g ai/ha
  Wheat plant response rating (0 to 100 scale, 0 is no effect, 100 is complete control): 20
ducksalad
  Plant response rating, Ducksalad: 100
sedge, umbrella
  Plant response rating, Sedge, Umbrella: 0
blackgrass; [12]
  Plant response rating, Blackgrass: 30
blackgrass; 500 g ai/ha
  Blackgrass plant response rating (0 to 100 scale, 0 is no effect, 100 is complete control): 40
